{
  "source": "patent US10723706B2",
  "about": "“Perk inhibitors and uses thereof in treating diseases associated with aggregation-prone proteins” (Ramot at Tel-Aviv University Ltd., priority 2016, dated 2020)",
  "key": {"cells": {"tested_on": "cells", "assay": "Intrinsic cytotoxicity on cells", "format": "cell-based"}, "STHdhQ111/111 cells": {"tested_on": "STHdhQ111/111 cells", "assay": "Rescue from UPR-induced cell death (tunicamycin), PI cell cycle FACS, sub-G0/G1 fraction", "format": "cell-based", "conditions": "Tun for 48 hours", "protocol": "(§1) STHdhQ7/7 and STHdhQ111/111 cells were grown as described in Leitman et al. [PLoS One 2014, 9(3):e90803].\nAfter the indicated treatment times in full medium or in DMEM without serum, cells were incubated with propidium iodide (PI) solution ([…]) and read by flow cytometry as described in Leitman et al. [PLoS One 2014, 9(3):e90803]. Cells in sub-G0/G1 were counted as apoptotic/dead cells.\nThe activity of the novel inhibitors, compared to A4, in preventing cytotoxicity induced by pathogenic Htt, was then tested. A stable murine striatal cell line expressing full-length polyQ-expanded Htt, STHdhQ^111/111, was used."}, "RIPK1": {"target": "T1, RIPK1 (Homo sapiens, UniProt Q13546)", "T1 sequence (Q13546 1-671)": "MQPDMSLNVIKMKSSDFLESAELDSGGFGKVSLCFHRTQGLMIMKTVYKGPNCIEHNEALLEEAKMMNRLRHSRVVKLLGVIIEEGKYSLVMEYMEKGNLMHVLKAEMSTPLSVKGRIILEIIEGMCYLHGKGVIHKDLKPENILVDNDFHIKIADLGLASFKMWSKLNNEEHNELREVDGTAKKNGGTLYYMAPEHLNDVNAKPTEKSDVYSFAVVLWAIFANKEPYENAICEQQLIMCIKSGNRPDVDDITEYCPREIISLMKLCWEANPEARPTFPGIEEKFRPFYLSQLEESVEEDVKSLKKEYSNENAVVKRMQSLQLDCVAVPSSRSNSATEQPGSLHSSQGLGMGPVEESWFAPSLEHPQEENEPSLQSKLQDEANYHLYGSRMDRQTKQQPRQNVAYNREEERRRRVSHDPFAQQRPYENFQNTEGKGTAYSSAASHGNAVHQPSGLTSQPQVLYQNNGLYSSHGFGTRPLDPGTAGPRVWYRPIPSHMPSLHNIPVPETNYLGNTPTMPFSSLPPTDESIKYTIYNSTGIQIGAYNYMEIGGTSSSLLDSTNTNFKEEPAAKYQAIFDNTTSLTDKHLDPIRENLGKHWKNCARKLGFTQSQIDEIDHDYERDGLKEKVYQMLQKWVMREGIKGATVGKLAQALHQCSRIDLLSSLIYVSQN", "conditions": "Rojas-Rivera et al. 2017; cited from earlier work"}, "PKR (eIF2αK2)": {"target": "T2, PKR (eIF2αK2) (Mus musculus, UniProt Q03963)", "T2 construct": "endogenous in cells", "T2 sequence (Q03963 1-515)": "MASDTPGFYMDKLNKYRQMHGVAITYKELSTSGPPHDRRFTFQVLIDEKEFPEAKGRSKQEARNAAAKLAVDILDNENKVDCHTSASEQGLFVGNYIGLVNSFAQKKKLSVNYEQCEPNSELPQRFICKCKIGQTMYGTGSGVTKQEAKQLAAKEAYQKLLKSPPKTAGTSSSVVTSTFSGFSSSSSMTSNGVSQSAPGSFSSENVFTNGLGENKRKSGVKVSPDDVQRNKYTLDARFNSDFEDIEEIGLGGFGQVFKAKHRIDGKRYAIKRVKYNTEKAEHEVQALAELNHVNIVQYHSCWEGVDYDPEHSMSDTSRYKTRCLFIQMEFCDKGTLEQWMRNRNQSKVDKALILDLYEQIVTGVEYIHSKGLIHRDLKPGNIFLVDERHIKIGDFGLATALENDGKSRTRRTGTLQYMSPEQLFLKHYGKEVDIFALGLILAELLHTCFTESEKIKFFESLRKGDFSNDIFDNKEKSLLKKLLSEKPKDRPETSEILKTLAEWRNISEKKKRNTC", "assay": "PKR activity induced with poly-I:C in cells", "format": "cell-based", "protocol": "(§2) Cells were treated with Tun ([…]) or with A4, PKRi, poly-I:C or exemplary PERK inhibitors of the present embodiments, by adding the tested compound to the cell medium at the indicated concentrations and times. Cell lysis and immunoblotting was performed as described in Leitman et al. [PLoS One 2014, 9(3):e90803]."}, "PERK (eIF2αK3)": {"target": "T3, PERK (eIF2αK3) (Mus musculus, UniProt Q9Z2B5)", "T3 construct": "endogenous in cells; host or cells: STHdhQ7/7 murine striatal cells", "T3 sequence (Q9Z2B5 29-1114)": "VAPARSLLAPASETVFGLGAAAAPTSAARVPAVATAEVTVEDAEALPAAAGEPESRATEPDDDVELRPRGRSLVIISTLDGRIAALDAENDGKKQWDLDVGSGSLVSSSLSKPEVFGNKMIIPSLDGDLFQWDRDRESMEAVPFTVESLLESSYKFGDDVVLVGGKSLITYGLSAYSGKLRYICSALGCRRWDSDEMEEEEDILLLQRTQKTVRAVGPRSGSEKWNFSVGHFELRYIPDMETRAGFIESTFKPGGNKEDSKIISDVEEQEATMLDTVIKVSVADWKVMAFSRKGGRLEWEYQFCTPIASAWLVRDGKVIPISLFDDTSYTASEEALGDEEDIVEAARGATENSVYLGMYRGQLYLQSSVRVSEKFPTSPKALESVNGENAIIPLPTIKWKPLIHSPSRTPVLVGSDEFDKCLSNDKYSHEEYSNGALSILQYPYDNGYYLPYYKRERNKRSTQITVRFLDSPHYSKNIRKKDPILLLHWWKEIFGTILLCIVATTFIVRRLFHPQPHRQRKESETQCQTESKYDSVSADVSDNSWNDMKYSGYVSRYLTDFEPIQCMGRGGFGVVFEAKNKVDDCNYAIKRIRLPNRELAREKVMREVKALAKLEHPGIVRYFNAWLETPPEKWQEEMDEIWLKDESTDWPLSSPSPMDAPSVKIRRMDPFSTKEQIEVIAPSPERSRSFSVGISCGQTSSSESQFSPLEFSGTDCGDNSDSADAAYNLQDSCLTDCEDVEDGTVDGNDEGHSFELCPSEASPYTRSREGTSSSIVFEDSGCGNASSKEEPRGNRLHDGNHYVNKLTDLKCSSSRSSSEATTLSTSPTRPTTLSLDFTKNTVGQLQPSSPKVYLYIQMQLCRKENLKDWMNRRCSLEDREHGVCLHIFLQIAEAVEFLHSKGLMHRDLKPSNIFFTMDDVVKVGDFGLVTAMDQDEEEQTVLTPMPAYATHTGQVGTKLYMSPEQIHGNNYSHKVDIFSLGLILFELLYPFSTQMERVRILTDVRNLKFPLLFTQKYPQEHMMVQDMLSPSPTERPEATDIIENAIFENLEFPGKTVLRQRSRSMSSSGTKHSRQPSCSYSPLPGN", "assay": "ER stress-mediated eIF2α phosphorylation in tunicamycin-treated striatal cells (immunoblotting)", "format": "cell-based, murine", "conditions": "STHdhQ7/7 cells, Tun 5 μg/ml for 48 hours; A4 50 μM, PKRi 1 μM", "protocol": "as §1, §2\nAs the activity of PERK was particularly affected in the Huntington's disease (HD) models [Leitman et al., PLoS One 2014, 9(3):e90803], the therapeutic capacity of a PERK inhibitor named A4 [Wang et al., Chem Biol Drug Des 2010, 76:480-495] was tested in cells expressing polyQ-expanded Htt, as depicted in Background art FIG. 1."}, "[1]": {"tested_on": "betaTC-tet pancreatic islet beta-cell line", "assay": "Toxicity in pancreatic beta cells", "format": "cell-based, mouse", "conditions": "betaTC-tet cells, tested concentration range up to 500 nm", "protocol": "MK-28 toxicity was tested in pancreatic beta cells, the type of cell that is most sensitive when ER stress response pathways are affected. A conditionally transformed mouse pancreatic islet beta-cell line (betaTC-tet), such as described by Efrat [Ann NY Acad Sci 1999, 875:286-293], was used. These cells produce high amounts of insulin, resulting in a high protein load in the ER, making them very sensitive to ER stress and other stimuli, such as cytokine effects. Compromising any of the UPR branches leads to cytotoxicity in these cells. MK-28 was compared to the ER stressor tunicamycin (Tun)."}},
  "data": [
    {"compound": "COc1cc(/C=N\\N(C)c2nc(-c3ccccc3)cc(-c3ccccc3)n2)ccc1O", "note": "[Compound 1, 2-{N-methyl-N′-(3-methoxy-4-hydroxybenzylidene)hydrazinyl}-4,6-diphenylpyrimidine]", "values": [
      {"measurement": "intrinsic cytotoxicity on cells", "setting": "cells", "result": "neither MPGL1 nor MK-28 exhibited intrinsic cytotoxicity"},
      {"measurement": "rescue from UPR-induced cell death (cytotoxicity)", "setting": "STHdhQ111/111 cells", "result": "more potent than A4"}
    ]},
    {"compound": "Cn1cc(-c2ccc3c(c2)CCN3C(=O)Cc2cccc(C(F)(F)F)c2)c2c(N)ncnc21", "note": "[GSK2606414]", "values": [
      {"measurement": "inhibition of RIPK1", "setting": "RIPK1", "result": "potent inhibitors of RIPK1"}
    ]},
    {"compound": "Cc1cccc(CC(=O)N2CCc3c2ccc(-c2cn(C)c4ncnc(N)c24)c3F)n1", "note": "[GSK2656157]", "values": [
      {"measurement": "inhibition of RIPK1", "setting": "RIPK1", "result": "potent inhibitors of RIPK1"}
    ]},
    {"compound": "O=C1Nc2ccc3ncsc3c2/C1=C/c1cnc[nH]1", "note": "[PKRi, reference compound]", "values": [
      {"measurement": "inhibition of PKR activity", "setting": "PKR (eIF2αK2)", "result": "inhibited"},
      {"measurement": "inhibition of ER stress-mediated eIF2α phosphorylation", "setting": "PERK (eIF2αK3)", "result": "not by PKRi"},
      {"measurement": "rescue from UPR-induced cell death (cytotoxicity)", "setting": "STHdhQ111/111 cells", "result": "had no effect"},
      {"measurement": "rescue from UPR-induced cell death (cytotoxicity)", "setting": "STHdhQ111/111 cells; listed as PKR inhibitor", "result": "no effect"}
    ]},
    {"compound": "Tunicamycin [reference compound]", "values": [
      {"measurement": "toxicity in pancreatic beta cells", "setting": "[1]", "result": "toxic"}
    ]}
  ]
}
